The text below walks through data of patent US20170298209A1, “USE OF A QUINONE COMPOUND IN BUILDING MATERIALS” (Arkion Life Sciences, LLC, priority 2014, published 2017).

A short description of data set [1]: Solubility of the quinone compound in aqueous solution / solvents. The format is physicochemical. From the text: The quinone compound can be applied to the substrate in the form of a solution. The solution can be an aqueous or semi-aqueous solution. The quinone compound can be soluble or semi-soluble in the solution. Depending on the pH of the solution the quinone compound can be soluble or partially soluble. The partially soluble quinone can exist as either suspended crystalline particles, fine particles, colloidal particles, etc. […] This compound can exist in solution as particles, crystals, colloids, etc. In some embodiments, the semi-aqueous or non-aqueous solutions containing suitable particles, crystals, colloids, etc. can be used to achieve penetration of a quinone compound into and under the surface of a substrate.
(§1) A power pole made from southern yellow pine is treated with a sodium salt of 9,10 dihyroxyanthracene (also known as AHQ or anthrahydroquinone) to render the pole resistant to pest and/or fungal damage. The sodium salt of 9,10 dihyroxyanthracene is stable in an oxygen free and high pH environment (e.g., above pH 11). In the high pH solution, the compound has a solubility of around 10% (wt/v). A 10% solution of AHQ is prepared in an aqueous solution having a pH of about 12. The pole is soaked in the bath of 10% AHQ for about 20-30 minutes at 70-80° C. with little or no air exposure. A portion of the AHQ penetrates into the top layer of the pole. The depth of penetration can range from 1 mm to 200 mm.
(§2) After soaking, the pole is transferred to a water tank where the surface would be neutralized. The water having a nominal pH of about 7. Alternatively, the pole is dried in air without rinsing. AHQ is unstable in the presence of air (e.g., oxygen) unless it is maintained in a high pH solution. If exposed to a lower pH or air (e.g., oxygen), the AHQ can be converted to 9,10 anthraquinone (also known as AQ). AQ is insoluble in almost every solvent including water. Therefore, AQ precipitates out of solution and becomes trapped in the top layer of the pole. AQ forms both on the surface and inside the wood fibers of the upper layers of the pole. This outer layer of pole is now both termite and woodpecker proof. Because anthraquinones can be effective fungicides, the pole is now also fungi proof.

Another data set deals with Pileated woodpeckers. Put plainly: Caged Pileated woodpecker trials (two-choice then one-choice test) with treated and untreated utility pole sections. Type of data set: in vivo, Pileated woodpecker (Dryocopus pilealus). The conditions noted are these: poles treated with AHQ versus untreated poles; FIGS. 2-4. The method, then: Overview. A series of caged Pileated woodpecker trials are conducted using power pole segments both untreated and treated with a quinone. The treatment segments contain the quinone compound in a range of concentrations. The quinone compound is also applied by either painting or soaking. The quinone compound is applied in a high pH solution (i.e., in a water soluble form). Thereafter, the segments are treated with a lower pH solution to convert the quinone to a water insoluble form. The bird's preference to nest building excavation for each segment is measured. Both the soaked and painted segments show lower incidence of nesting evacuation. […]
The initial placement of the treated and the untreated poles in each enclosure was randomly determined. […] At the beginning of each test day, starting on day 2 (0800), woodpecker damage to each pole was measured by collecting and weighing the wood chips that were removed. […] The camera recorded woodpecker activity on poles for during the first two hours of each day during the test period. […]
The weight of wood chips removed by Pileated woodpeckers follow a three-factor repeated measures design, where observations are repeated on each bird for all three factors: treatment (chemical) time (pre and post-treatment), and pole (control and treated)). All data was analyzed as mixed liner models. […]

Data set [2] can be described thus: Stability of AHQ towards air (oxygen) and pH. Type of data set: physicochemical. The method, then: as §1
as §2, with “This outer layer of pole is now both termite and woodpecker proof. Because anthraquinones can be effective fungicides, the pole is now also fungi proof.” left out

Turning to `Oc1c2ccccc2c(O)c2ccccc12` [9,10-anthrahydroquinone], the “solubility in aqueous solutions” value in data set [1] (slightly basic or neutral pH values) was “only slightly soluble or insoluble”.

As to `[Na+].[Na+].[O-]c1c2ccccc2c([O-])c2ccccc12` [AHQ, sodium salt of 9,10 dihyroxyanthracene], in the data set with Pileated woodpeckers, the “weight of wood chips removed from poles” value is “surprisingly less than the weight of wood chips removed from untreated poles”. In addition, in data set [1] (high pH (e.g., pH 11 or more)), the “solubility in aqueous solutions” value is on record as “readily soluble”. Further, the solubility result in data set [1] (in the high pH solution (e.g., above pH 11)) was “around 10 % (wt/v)”. In addition, the stability result in data set [2] (oxygen free and high pH environment (e.g., above pH 11)) was “stable”; in data set [2] (presence of air (e.g., oxygen), unless maintained in a high pH solution), “unstable”.

Take `O=C1c2ccccc2C(=O)c2ccccc21` [AQ, 9,10 anthraquinone]: the solubility in solvents result in data set [1] is “insoluble”.
